Like-named read-outs stand apart in the source and are kept apart here. Blank lines part the entries; values can stand above or below the molecule they belong to.
How the values were obtained:
[1] = Transdermal glucose extraction by sonophoresis in vitro; assay type: in vitro ADME, human; conditions: for glucose concentration attained in the donor compartment: 10 minutes sonophoresis; for glucose concentration in the donor compartment as percent of that in the receiver compartment: 20 KHz, 125 mW/cm^2, continuous
Description: Transdermal transport of a ^14 C labeled (New England Nuclear) as well as non-labeled (Sigma Chemicals) was studied in the presence as well as in the absence of low-frequency ultrasound. The permeability experiments were performed in vitro using human cadaver skin obtained from local hospitals. […] The Franz diffusion cell consists of two compartments, the donor and the receiver compartments, with the stratum comeum facing the donor compartment. […] The donor and receiver compartments were then clamped. The receiver compartment was filled Phosphate Buffer Saline (PBS, phosphate concentration=0.01M, NaCl concentration=0.137M) (Sigma Chemicals Co.) The donor compartment was filled with a solution of either radiolabelled glucose (1 mCi/ml) or non-labeled glucose (concentration in the range of 50 mg/dL to 300 mg/dL) in separate experiments. The concentration of the permeant in the receiver compartment was measured every 5 minutes using a scintillation counter (model 2000 CA, Packard) in the case of radiolabelled glucose and using a commercially available kit (Sigma Chemicals) in the case of unlabeled glucose.
Ultrasound was applied using a sonicator (VCX 400, Sonics and Materials) operating at a frequency of 20 KHz. The ultrasound intensity was measured using a hydrophone (Model 8106, Bruel and Kjaer).
Additional experiments were performed to assess whether the amount of glucose transported by sonophoresis is proportional to the glucose concentration in the […]. In separate experiments, glucose concentration in the receiver solution was varied from 50 mg/dL to 350 mg/dL (typical variation in the blood glucose level of a diabetic patient) and performed sonophoresis using ultrasound (20 KHz, 125 mW/cm^2, continuous) for 10 minutes. […] The line shown in FIG. 3B represents the best fit.

hairless rats [2] = test: Transdermal glucose extraction by sonophoresis in vivo; set-up: species or system rat; conditions: 20 KHz, 62.5, continuous, 1 minute
Description: In vivo experiments were performed to assess the efficacy of sonophoresis across living skin. […] The hairless rats were anesthetized with a mixture of ketamine (60 mg/kg) and xylazine (10 mg/kg). After about an hour in anesthesia, a flanged glass cylinder (Crown Glass Company, diameter 20 mm, height 2 cm) was glued on the rat's back using a minimal amount of superglue (Permabond International) or vacuum grease (Dow Chemicals) on the outer edge of the flange. The center of the cylinder was located about 3 cm from the rear end of the rat. This particular site was chosen to avoid application of ultrasound directly on a sharp bone close to the body surface, which otherwise might have caused damage to the blood capillaries near the edge of the bone. The cylinder was filled with PBS (phosphate concentration=0.01M, NaCl concentration=0.137M) (Sigma Chemicals Co.). […] The concentration of glucose in PBS was measured using an assay kit (Sigma Chemicals).

[3] = Description: (§1) Materials and methods: In vivo as well as in vitro experiments were performed to study the effect of low-frequency ultrasound on the transport of insulin across the skin. In vitro experiments were performed using human cadaver skin. The skin was heat stripped by keeping it in water at 60° C. for two minutes followed by the removal of the epidermis. It was then stored at 4° C. in a humidified chamber. A piece of epidermis was taken out from the chamber prior to the experiments and was mounted on the Franz diffusion cell (Crown Bioscientific Co.) which consists of two compartments, the donor and the receiver compartment. […] The human cadaver epidermis (separated from the dermis by heat-treatment) is mounted between the two compartments and is supported by a Nylon mesh (Tetko Inc.) to avoid any damage. The skin was supported by a nylon mesh (Tetko Inc.) in order to a mimic the fact the skin in vivo is supported by mechanically strong dermis. The compartments were then clamped together. The receiver compartment was filled with 2%. BSA (Sigma Chemicals) solution in PBS (Sigma Chemicals) and the donor solution was filled with 100 U/ml solution of human recombinant insulin (Humulin Regular). The ultrasound intensity, I, (Spatial Average Temporal Peak) was calculated from the values of the acoustic pressure amplitude, P, measured using a hydrophone (Bruel and Kjaer) using the equation, I=P^2 /2.rho.c, where .rho. is the water density (1 gm/ml), and c is the velocity of ultrasound in water [1500 m/s].
[4] = In vitro skin permeability to proteins in the presence of ultrasound (Franz diffusion cell); assay type: in vitro ADME, human
Description: To assess whether application of ultrasound enhances transdermal protein flux, the skin permeability to these proteins in the presence of ultrasound in vitro across human cadaver epidermis in a Franz Diffusion Cell (Crown Glass Company) was measured. […] The concentration of proteins in the receiver compartment was measured every hour either by RIA or ELISA. The insulin concentration in the receiver compartment was measured every hour by Radioimmuno Assay (performed at Linco Research Inc., St. Charles). The γ-interferon concentration was measured using ELISA methods developed by Endogen Inc, and the erythropoeitin concentration was measured by ELISA (performed at ARUP, Salt Lake City). Skin permeabilities to proteins were calculated using the transdermal fluxes measured during the first hour. The transdermal flux can be calculated using the equation, J=DM/.increment.t, where .increment.M is the amount of protein transported per unit skin area during time .increment.t. The skin permeabilities, P, can be calculated from the transdermal flux, J, during the first hour of ultrasound application using the equation, P=J/.increment.C, where .increment.C is the concentration difference across the skin.

[5] = remark: listed apart in the source
Description: as §1
Ultrasound was turned ON at a frequency of 20 KHz, an intensity varying in the range of 0 to 1 W/cm^2 and 10% duty cycle. Samples (200 μl) were taken from the receiver compartment every hour to measure the concentration of insulin in the receiver compartment. The samples were immediately frozen and were stored at -20° C. till they were analyzed by RIA (Linco Research Co.). Ultrasound was typically applied for 4 hours and was then turned OFF. Transdermal insulin flux was followed for next two hours.

hairless rats [6] = test: In vivo insulin sonophoresis, blood glucose level of normal hairless rats; conditions: for amount of insulin delivered: 225 mW/cm^2, area 3 cm^2; for blood glucose level after ultrasound exposure: normal rats, from about 250 mg/dl
Description: Materials and Methods: In vivo experiments were performed using hairless rats (Charles River). The rats were kept in quarantine to insure good health. On the day of experiment, they were taken out of the cages, anesthetized using a mixture of ketamine (90 mg/kg) and xylazine (10 mg/kg). After about an hour into anesthesia, a glass chamber was glued to the back of the rat using superglue (Permeabond). The glass chamber was filled with 100 U/ml solution of insulin and ultrasound (frequency of 20 KHz, intensity in the range of 0 to 1 W/cm^2, 100 msec pulses applied every second) was applied. The blood glucose level was measured every 30 minutes. Ultrasound was typically turned OFF after 1 hour, although the measurements of the blood glucose were continued for the next three hours.
To estimate the amount of insulin penetrating the hairless rat skin during sonophoresis at the various intensities reported in FIG. 2A, various known amounts of insulin in the range of 0 to 1 U subcutaneously (most commonly used method of insulin administration today) in normal rats. The blood glucose levels of these rats were then compared with those of the normal rats undergoing sonophoresis.
In order to estimate the dependence of the amount of insulin delivered on ultrasound exposure time (in vivo), insulin-sonophoresis experiments (20 KHz, […], 100 msec pulses applied every second) were performed on normal rats for different exposure times in the range of 1 minute to 1 hour.

diabetic hairless rats = test: In vivo insulin sonophoresis, blood glucose level of diabetic hairless rats; set-up: species or system rat; conditions: in 30 minutes, 20 KHz
Description: The blood glucose level was measured every 30 minutes.

[7] = diabetic hairless rats
[8] = within 2 hours after turning ultrasound OFF

glucose concentration attained in the donor compartment ([1]; receiver compartment 50 mg/dL): 0.5 mg/dL
glucose concentration attained in the donor compartment ([1]; receiver compartment 350 mg/dL): 6.5 mg/dL
glucose concentration in the donor compartment as percent of that in the receiver compartment ([1]; after 5 minutes of sonophoresis): about 0.5%
glucose concentration in the donor compartment as percent of that in the receiver compartment ([1]; after 10 minutes of sonophoresis): about 2%
glucose concentration in the reservoir after extraction (hairless rats [2]; rat blood glucose 450 mg/dL): 1 mg/dL
glucose concentration in the reservoir after extraction (hairless rats [2]; rat blood glucose about 200 mg/dL): 0.2 mg/dL
Molecule: O=C[C@H](O)[C@@H](O)[C@H](O)[C@H](O)CO [glucose]

Molecule: O [water]
water permeability enhancement ([3]; during sonophoresis, 20 KHz, 125 mW/cm^2, 100 msec pulses every second): 100 fold
recovery of water permeability enhancement [3, 8]: about 94 (±3) %
recovery of water permeability enhancement ([3]; within 15 hours after turning ultrasound OFF): 98 (±1) %

Molecule: erythropoeitin
dose deliverable from a transdermal patch by sonophoresis [4]: about 140 U/h
human skin permeability [4]: 9.8×10^-6 (±40%) cm/h

Molecule: insulin
transdermal insulin flux before ultrasound ([5]; before ultrasound turned ON): below the detection limit
insulin dose that could be delivered from a patch ([5]; flux 100 mU/cm^2 /hr, patch area 100 cm^2): about 13 U/h
transdermal insulin flux after turning ultrasound OFF ([5]; three hours after turning ultrasound OFF): statistically insignificant
transdermal insulin flux ([5]; ultrasound 20 KHz, 125 mW/cm^2, 10%, reached in about 1 hour, almost constant while ultrasound ON, donor 100 U/ml): about 100 mU/cm^2 /hr
transdermal insulin permeability without ultrasound ([5]; ultrasound intensity = 0 (FIG. 1B)): impermeable
transdermal insulin flux after turning ultrasound OFF [5, 8]: below our detection limit
dose deliverable from a transdermal patch by sonophoresis ([4]; patch area 40 cm^2, donor 100 U/ml insulin, 3×10^7 γ-interferon, 3×10^5 U/ml erythropoeitin): about 12 U/h
human skin permeability ([4]; ultrasound 20 KHz, 225 mW/cm^2, 100 msec pulses every second, first hour): 3.3×10^-3 (±35%) cm/h
blood glucose level upon 1 hour insulin-ultrasound treatment (hairless rats [6]; 20 KHz, 100 msec pulses every second, intensities 0 to 225 mW/cm^2): intensity dependent decrease
amount of insulin delivered (hairless rats [6]; 10 minute ultrasound application): about 100 mU
amount of insulin delivered (hairless rats [6]; 1 hour ultrasound exposure): about 1 U
blood glucose level after ultrasound exposure (hairless rats [6]; 10 minute exposure, 20 KHz): about 150 mg/dl
blood glucose level after ultrasound exposure (hairless rats [6]; 1 hour exposure, 20 KHz): about 30 mg/dl
subcutaneous insulin dose inducing a similar decrease in blood glucose level (hairless rats [6]; sonophoresis 1 hour at 62.5 mW/cm^2): 100 mU
subcutaneous insulin dose inducing a similar decrease in blood glucose level (hairless rats [6]; sonophoresis 1 hour at 225 mW/cm^2): 1 U
blood glucose level after insulin-ultrasound treatment (diabetic hairless rats; diabetic hairless rats, from about 400 mg/dl, 225 mW/cm^2, 100 msec pulses every second): 200 mg/dL
blood glucose level after insulin-ultrasound treatment (diabetic hairless rats; diabetic rat, from 400 mg/dl, 125 mW/cm^2, 100 msec pulses every second): 200 mg/dL
level of transdermally delivered human insulin in rat plasma ([7]; after 30 minutes of sonophoresis): 77 (±28) picomolar
level of transdermally delivered human insulin in rat plasma ([7]; after 1 hour of sonophoresis): 178 (±84) picomolar

B1: γ-interferon (protein, UniProt P01579 24-161, looked up)
Interferon gamma: QDPYVKEAENLKKYFNAGHSDVADNGTLFLGILKNWKEESDRKIMQSQIVSFYFKLFKNFKDDQSIQKSVETIKEDMNVKFFNSNKKKRDDFEKLTNYSVTDLNVQRKAIHELIQVMAELSPAAKTGKRKRSQMLFRG
notes: γ-interferon (2500 U/ml, Genzyme Corp.), molecular weight 17,000 D
dose deliverable from a transdermal patch by sonophoresis [4]: about 5×10^6 U/h
human skin permeability [4]: 8×10^-4 (±22%) cm/h
